From US20090023807A1, “Treatment of Cytokine Dysregulation by Using Sn-2 Gamma-Linolenoyl, Gamma-Diho-Molinolenoyl or Arachidonoyl Patty Acid Glycerol Monoesters” (BTG International Limited, priority 2005, published 2009)

How the values were obtained:
CREAE = CREAE feeding study; assay type: in vivo
Text: γ-Linolenic acid (18:3 n-6, or GLA) is known to be rapidly converted to longer-chain omega-6 polyunsaturated fatty acids dihomo-γ-linolenic acid and arachidonic acid in vivo (Phylactos et al 1994, Harbige et al 1995, 2000). Therefore to determine how to increase the level of membrane long chain omega-6 fatty acids in MS the inventors have reviewed their results obtained with several GLA-containing oils:-both fungal (from Mucor javanicus) and plant (Borago officianalis), Evening primrose Oenothera spp. or Blackcurrant Ribes spp) as well as a synthetic tri-GLA oil as GLA delivery systems in an in vivo experimental animal model of MS known as chronic relapsing experimental autoimmune encephalomyelitis (CREAE). […] Importantly blackcurrant seed oil has a low sn-2 GLA with most of the GLA in the sn-1 and sn-3 positions (Lawson and Hughes 1988). […] This would also be consistent with the sn-2 GLA being important i.e. the outer pair sn-1 and sn-3 GLA being enzymatically removed in vivo and probably undergoing oxidation leaving the sn-2 GLA only. This selective hydrolysis arises from the known ability of specific lipases to remove the sn-1 and sn-3 fatty acids from triacylgycerol molecules but an apparent protection of the sn-2 position in vivo (Lawson and Hughes 1988, Kyle 1990).

TGF-β1 = TGF-β1 production from spleen mononuclear cells of mice fed the monoglyceride by gavage (ELISA); assay type: in vivo, SJL mice; details: fed 50 μg; for TGF-β1 production from spleen PBMCs: seven days by gavage
Method: After seven days animals were killed and the brain, liver and spleen were removed—the liver and brain frozen at −70° C. and mononuclear cells were isolated from spleens by sieving and density centrifugation on Lymphoprep (Sigma Chemical Co) and cultured at 37° C. in 5% CO2 atmosphere in 5 ml culture tubesat a cell density of 1×10^6 cells/ml in RPMI 1640 medium in 5% foetal calf serum (FCS). Cells were cultured with and without 1 μg/ml or 25 μg/ml concanavalin A (Con A) for approximately 20 hours and the supernatants removed and stored at −70° C. until required. Mouse TGF-β1 was measured in supernatants using a commercially available ELISA (Promega, Madison Wis.).

[1] = Storage stability and rearrangement of the monoglyceride; assay type: physicochemical
Text: This exemplifies its potential for inclusion in air excluding formats such as capsules or e.g. collapsible bag containers which allow egress of oil without entry of air. A high purity process for its synthesis has also been published in Yang et al, Journal of the Chinese Institute of Chemical Engineers, 34, 617-623 (2003). These processes lend themselves to synthesis of n-3 and n-6 sn-2 monoglycerides by replacing the arachdonoyl or γ-linolenoyl source with the desired acyl group containing molecule.
Boric acid (2.81) g, 0.045 mol, 4 equivalents) was added to a freshly prepared solution of 1,3-O-benzylidene glycerol 2-octa-6Z,9Z,12Z-trienoate (5.0 g, 0.011 mol, 1 equivalent) in trimethyl borate (28 ml, 26.0 g, 0.25 mol, 22 equivalents) under N2. The mixture was stirred and heated in a sealed Teflon bomb at 90° C. for 15 minutes. The resulting cool solution was concentrated in vacuo and the residue heated at 90° C. under vacuum for 5 minutes. […] This process was repeated on the same scale twice more and the combined residues were dissolved in ether (150 ml) and washed with water (2×50 ml). The ether extract (not dried as MgSO4 promotes rearrangement) was concentrated in vacuo, ethanol added to the residue and the solution re-evaporated with ethanol (2×) to remove water. The residual tan oil (15.0 g) was purified by column chromatography on solica gel-boric acid (10:1) (10 g). Elution with DCM and then DCM-methanol (9:1) gave the product as a yellow oil (11.7 g, 73%) HPLC purity 93.4%. This material was stored in a freezer at −20° C. under N2.

[2] = Precipitation of the solubilised sn-2 monoglyceride; assay type: physicochemical; details: acid pH
[3] = Tolerability of gavage feeding; assay type: in vivo, SJL mice; details: higher doses (of 50, 125 and 250 μl), seven days
TNF-α = details: cited from earlier work

| Deterioration on storage ([1]; freezer at −20° C. under N2, 21 days) | Rearrangement to the 1-γ-Linolenoyl glycerol isomer ([1]; when heated or treated with acids or bases) | Deterioration on storage ([1]; yellow oil, −20° C. under nitrogen, several weeks at least) | Precipitation [2] | SMILES | Protective effects in CREAE (CREAE) | Change % of TGF-β1 production versus control (TGF-β1; Con A 0 μg/ml) [%] | Change % of TGF-β1 production versus control (TGF-β1; Con A 1 μg/ml) [%] | Change % of TGF-β1 production versus control (TGF-β1; Con A 25 μg/ml) [%] | TGF-β1 production from spleen PBMCs (TGF-β1; stimulated, Con A 1 μg/ml) [pg/mL] | TGF-β1 production from spleen PBMCs (TGF-β1; stimulated, Con A 25 μg/ml) [pg/mL] | TGF-β1 production from spleen PBMCs (TGF-β1; unstimulated, Con A 0 μg/ml) [pg/mL] | Regurgitation after gavage [3] | Activity in reducing TNF-α (TNF-α) |
| --- | --- | --- | --- | --- | --- | --- | --- | --- | --- | --- | --- | --- | --- |
|  |  |  |  | CCCCC/C=C\C/C=C\C/C=C\CCCCC(=O)OCC(COC(=O)CCCC/C=C\C/C=C\C/C=C\CCCCC)OC(=O)CCCC/C=C\C/C=C\C/C=C\CCCCC [TG-GLA] | protective effects similar to that of the borage oil |  |  |  |  |  |  |  |  |
| Little if any deterioration | can undergo rearrangement | without deterioration | tendency to precipitate | CCCCC/C=C\C/C=C\C/C=C\CCCCC(=O)OC(CO)CO [Example 1b, glycerol 2-octa-6Z,9Z,12Z-trienoate] |  | 80 | 79 | 42 | 409 | 480 | 377 | prone to regurgitation | inactive |
